Data taken from patent US20020147237A1, “Preservation of bodily protein” (priority 2001, published 2002).

How the values were obtained:
splanchnic area = experiment: splanchnic turnover (plasma flow times arterio-venous difference; negative = release, positive = uptake); assay type: in vivo, piglets; details: 60 min
Protocol: (§1) Food was withheld from the animals for twelve hours prior to the experiment, but they had free access to water. […] In addition, all animals were given an intravenous bolus of morphine 1 mg·kg^-1 and, following tracheotomy, pancuronium bromide 0.3 mg·kg^-1. […] After the last measurements, still under anaesthesia, the animals were killed with an overdose of potassium chloride. After induction of anaesthesia the animals were tracheotomised and ventilated through an 8 mm endotracheal tube (Mallincrodt Laboratories, Athlone, Ireland) with a Servo ventilator […] ([…], Solna, Sweden). Ventilation was maintained at 25 breaths per minute with a positive end-expiratory pressure of 5 cm of H2O. […] The body temperature was kept stable by means of a thermostat controlled heating pad and warmed intravenous infusions. After skin incisions, a catheter was introduced in the left external jugular vein and advanced to the right hepatic vein under fluoroscopic control. Its position was confirmed by a contrast injection. The right external jugular vein was used for placement of a central venous catheter and a 7F pulmonary artery thermodilution catheter. An arterial catheter was inserted in a subclavian branch and advanced to a central position. Through a small suprapubic incision, a urinary catheter was placed in the bladder. A cutdown was made to place an ultrasonic flow probe (Transonic Systems Inc., Ithaca, N.Y., USA) around the femoral artery and to cannulate the femoral vein for blood sampling. Arterial blood gases were analysed on an ABL300/OSM3 system (Radiometer, Copenhagen, Denmark). […] The column eluate was mixed with ninhydrin reagent for amino acid detection. […] Blood glucose was analysed on a Reflolux® II (Boehringer Mannheim, Germany), using the glucose-oxidase/peroxidase reaction. Arterial and hepatic venous blood was drawn for calculations of splanchnic blood flow. […] The mean value of at least three measurements was adopted. Calculation of splanchnic blood flow was carried out according to the constant dye infusion technique (10). […] Splanchnic plasma flow was calculated according to a formula derived from Fick's principle: [formula] […] Femoral artery plasma flow was calculated as blood flow (1-EVF). The turnover of amino acids, ammonium and urea were calculated as plasma flow times the arterio-venous plasma concentration difference with negative values indicating release and positive values uptake. After anaesthesia and surgical preparation the piglets were allowed a stabilisation period of one hour and randomly assigned to either Group 1 or Group 2.

[1] = tested on: anaesthetised piglet model; experiment: arterial plasma amino acid, NH4, urea and blood glucose concentrations in anaesthetised piglets; assay type: in vivo; details: for arterial glutamine level after 60 minutes (in words): after one hour of infusion of the single substance
Protocol: Food was withheld from the animals for twelve hours prior to the experiment, but they had free access to water. Anaesthesia was induced by an intramuscular injection of xylazine 2.2 mg·kg^-1, tiletamine 3 mg·kg^-1+zolazepam 3 mg·kg^-1 and atropine 0.04 mg·kg^-1. In addition, all animals were given an intravenous bolus of morphine 1 mg·kg^-1 and, following tracheotomy, pancuronium bromide 0.3 mg·kg^-1. […] After the last measurements, still under anaesthesia, the animals were killed with an overdose of potassium chloride. After induction of anaesthesia the animals were tracheotomised and ventilated through an 8 mm endotracheal tube (Mallincrodt Laboratories, Athlone, Ireland) with a Servo ventilator […] ([…], Solna, Sweden). Ventilation was maintained at 25 breaths per minute with a positive end-expiratory pressure of 5 cm of H2O. […] The body temperature was kept stable by means of a thermostat controlled heating pad and warmed intravenous infusions. After skin incisions, a catheter was introduced in the left external jugular vein and advanced to the right hepatic vein under fluoroscopic control. Its position was confirmed by a contrast injection. The right external jugular vein was used for placement of a central venous catheter and a 7F pulmonary artery thermodilution catheter. An arterial catheter was inserted in a subclavian branch and advanced to a central position. Through a small suprapubic incision, a urinary catheter was placed in the bladder. A cutdown was made to place an ultrasonic flow probe (Transonic Systems Inc., Ithaca, N.Y., USA) around the femoral artery and to cannulate the femoral vein for blood sampling. Arterial blood gases were analysed on an ABL300/OSM3 system (Radiometer, Copenhagen, Denmark). […] The column eluate was mixed with ninhydrin reagent for amino acid detection. […] Blood glucose was analysed on a Reflolux® II (Boehringer Mannheim, Germany), using the glucose-oxidase/peroxidase reaction. Arterial and hepatic venous blood was drawn for calculations of splanchnic blood flow. […] The mean value of at least three measurements was adopted. After anaesthesia and surgical preparation the piglets were allowed a stabilisation period of one hour and randomly assigned to either Group 1 or Group 2.

hind leg skeletal muscle = experiment: hind leg turnover (plasma flow times arterio-venous difference; negative = release, positive = uptake); assay type: in vivo, piglets; details: Group 1; 60 min; Dosage 1: NH4+ 12.3 μmol·kg^−1·min^−1 i.v. alone
Protocol: Food was withheld from the animals for twelve hours prior to the experiment, but they had free access to water. […] In addition, all animals were given an intravenous bolus of morphine 1 mg·kg^-1 and, following tracheotomy, pancuronium bromide 0.3 mg·kg^-1. […] After the last measurements, still under anaesthesia, the animals were killed with an overdose of potassium chloride. After induction of anaesthesia the animals were tracheotomised and ventilated through an 8 mm endotracheal tube (Mallincrodt Laboratories, Athlone, Ireland) with a Servo ventilator […] ([…], Solna, Sweden). […] The body temperature was kept stable by means of a thermostat controlled heating pad and warmed intravenous infusions. After skin incisions, a catheter was introduced in the left external jugular vein and advanced to the right hepatic vein under fluoroscopic control. Its position was confirmed by a contrast injection. The right external jugular vein was used for placement of a central venous catheter and a 7F pulmonary artery thermodilution catheter. An arterial catheter was inserted in a subclavian branch and advanced to a central position. Through a small suprapubic incision, a urinary catheter was placed in the bladder. A cutdown was made to place an ultrasonic flow probe (Transonic Systems Inc., Ithaca, N.Y., USA) around the femoral artery and to cannulate the femoral vein for blood sampling. Arterial blood gases were analysed on an ABL300/OSM3 system (Radiometer, Copenhagen, Denmark). […] The column eluate was mixed with ninhydrin reagent for amino acid detection. […] Blood glucose was analysed on a Reflolux® II (Boehringer Mannheim, Germany), using the glucose-oxidase/peroxidase reaction. Arterial and hepatic venous blood was drawn for calculations of splanchnic blood flow. […] The mean value of at least three measurements was adopted. […] Femoral artery plasma flow was calculated as blood flow (1-EVF). The turnover of amino acids, ammonium and urea were calculated as plasma flow times the arterio-venous plasma concentration difference with negative values indicating release and positive values uptake. After anaesthesia and surgical preparation the piglets were allowed a stabilisation period of one hour and randomly assigned to either Group 1 or Group 2.

[2] = tested on: anaesthetised piglet model; experiment: blood gas and hemodynamic variables in anaesthetised piglets during i.v. infusion; assay type: in vivo; details: 60 min
Protocol: as §1

[3] = Group 1, Dosage 1: NH4+ 12.3 μmol·kg^−1·min^−1 i.v. alone
[4] = Group 1, 60 min, Dosage 1: NH4+ 12.3 μmol·kg^−1·min^−1 i.v. alone
[5] = Group 2, Dosage 1: α-ketoglutarate 2.85 μmol·kg^−1·min^−1 i.v. alone
[6] = Group 2, 60 min, Dosage 1: α-ketoglutarate 2.85 μmol·kg^−1·min^−1 i.v. alone

For `Cl.N` [NH4Cl, ammonium chloride], the “Alanine turnover, splanchinc” value (splanchnic area; [3]) was 2.22 ± 0.28 µmol/min/kg, the “Arginine turnover, splanchinc” value (splanchnic area; [3]) was -0.23 ± 0.10 µmol/min/kg and the “FE (%)-NH4^+, splanchinc” value (splanchnic area; [3]) was 81 ± 4 a %. The “Glutamate turnover, splanchinc” value (splanchnic area; [3]) was -4.32 ± 0.28 µmol/min/kg, the “Glutamine turnover, splanchinc” value (splanchnic area; [3]) was 2.59 ± 0.56 µmol/min/kg and the “NH4^+ turnover, splanchinc” value (splanchnic area; [3]) was 3.09 ± 0.28 a μmol·min^−1·kg^−1. For the same molecule, the “Total AA turnover, splanchinc” value (splanchnic area; [3]) was 3.93 ± 2.08 µmol/min/kg, the “Urea turnover, splanchinc” value (splanchnic area; [3]) was -3.2 ± 1.4 µmol/min/kg and the Glucose concentration [1, 4] was 5.5 ± 0.5 mmol/L. For the same molecule, the “arterial Alanine concentration” value [1, 4] was 412 ± 44 a μmol · L^−1, the “arterial Arginine concentration” value [1, 4] was 80 ± 8 µmol/L and the “arterial Glutamate concentration” value [1, 4] was 191 ± 20 µmol/L. The “arterial Glutamine concentration” value [1, 4] was 450 ± 26 a μmol · L^−1, the “arterial NH4^+ concentration” value [1, 4] was 135 ± 14 a μmol · L^−1 and the “arterial Total AA concentration” value [1, 4] was 3034 ± 139 µmol/L. The “arterial Urea concentration” value [1, 4] was 3.4 ± 0.3 mmol/L, the “arterial glutamine level after 60 minutes (in words)” value [1] was “increased” and the “Alanine turnover, hind leg” value (hind leg skeletal muscle) was -0.13 ± 0.04 µmol/min/kg. For the same molecule, the “Arginine turnover, hind leg” value (hind leg skeletal muscle) was 0.01 ± 0.005 µmol/min/kg, the “FE (%)-NH4^+, hind leg” value (hind leg skeletal muscle) was 46 ± 3 a % and the “Glutamate turnover, hind leg” value (hind leg skeletal muscle) was 0.22 ± 0.03 µmol/min/kg. For the same molecule, the “Glutamine turnover, hind leg” value (hind leg skeletal muscle) was -0.09 ± 0.04 µmol/min/kg, the “NH4^+ turnover, hind leg” value (hind leg skeletal muscle) was 0.22 ± 0.03 a μmol·min^−1·kg^−1 and the “Total AA turnover, hind leg” value (hind leg skeletal muscle) was 0.12 ± 0.23 µmol/min/kg. The “Urea turnover, hind leg” value (hind leg skeletal muscle) was 0.2 ± 0.2 µmol/min/kg, the “Arterial pH” value [2, 3] was 7.43 ± 0.01 a and the C.O. [2, 3] was 138 ± 17 mL/min/kg. For the same molecule, the Leg blood flow [2, 3] was 4.7 ± 0.4 mL/min/kg, the PaCO2 [2, 3] was 5.18 ± 0.06 kPa and the Spl. blood flow [2, 3] was 43 ± 5 mL/min/kg. For the same molecule, the Leg blood flow ([2]; Group 1, Dosage 1: NH4+ 12.3 μmol·kg^−1·min^−1 i.v. alone, listed as ammonium chloride) was 4.7 ± 0.4 a ml · min^−1 · kg^−1.
With `O=C(O)CCC(=O)C(=O)O` [α-KGA, α-ketoglutaric acid] the “FE (%)-NH4^+, splanchinc” value (splanchnic area; [5]) was 28 ± 10%, the Glucose concentration [1, 6] was 5.6 ± 0.4 mmol/L and the “arterial Alanine concentration” value [1, 6] was 462 ± 34 µmol/L. For the same molecule, the “arterial Arginine concentration” value [1, 6] was 75 ± 5 µmol/L, the “arterial Glutamate concentration” value [1, 6] was 264 ± 32 µmol/L and the “arterial Glutamine concentration” value [1, 6] was 361 ± 24 z μmol · L^−1. The “arterial Urea concentration” value [1, 6] was 2.7 ± 0.2 mmol/L, the “drop of arterial glutamine concentration compared to the baseline level” value ([1]; Group 2, after one hour of α-KGA infusion alone) was 9±2% and the “arterial glutamine level after 60 minutes (in words)” value [1] was “decreased”. The “Arterial pH” value [2, 5] was 7.47 ± 0.01, the C.O. [2, 5] was 144 ± 10 a ml · min^−1 kg^−1 and the PaCO2 [2, 5] was 5.27 ± 0.06 kPa.
